Measurements published in patent US7517874B2 (priority 2007, dated 2009).

Tests used:
rat CB2 receptor (rCB2) = biological target: T1, rat CB2 receptor (rCB2) (Rattus norvegicus, UniProt Q9QZN9); test: cell-based; type: cell-based; settings: for +/− RCB2: agonist or inverse agonist at rCB2
T1 sequence (Q9QZN9 1-360): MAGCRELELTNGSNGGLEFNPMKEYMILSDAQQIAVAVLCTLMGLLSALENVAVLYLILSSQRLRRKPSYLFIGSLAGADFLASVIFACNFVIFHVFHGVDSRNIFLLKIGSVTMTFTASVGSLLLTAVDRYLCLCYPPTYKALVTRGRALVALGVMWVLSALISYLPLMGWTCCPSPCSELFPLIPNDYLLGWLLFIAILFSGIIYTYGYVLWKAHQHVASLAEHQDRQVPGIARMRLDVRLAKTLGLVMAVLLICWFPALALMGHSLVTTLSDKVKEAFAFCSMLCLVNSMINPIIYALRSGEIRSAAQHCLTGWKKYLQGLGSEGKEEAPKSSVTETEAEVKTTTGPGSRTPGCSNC
Outline: (§1)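 First, cells in IBMX-containing HEPES-buffered HBSS are raised to elevated cAMP with 2-8 μM NKH-477 for 30 min. Data are normalised to the forskolin and forskolin + 1 μM CP55,940 controls.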

[1] = biological target: human CB1 receptor (hCB1) (Homo sapiens, UniProt P21554); test: cell-based; type: cell-based; settings: for +/− HCB1: agonist or inverse agonist at hCB1
Chain of human CB1 receptor (hCB1) (P21554 whole entry): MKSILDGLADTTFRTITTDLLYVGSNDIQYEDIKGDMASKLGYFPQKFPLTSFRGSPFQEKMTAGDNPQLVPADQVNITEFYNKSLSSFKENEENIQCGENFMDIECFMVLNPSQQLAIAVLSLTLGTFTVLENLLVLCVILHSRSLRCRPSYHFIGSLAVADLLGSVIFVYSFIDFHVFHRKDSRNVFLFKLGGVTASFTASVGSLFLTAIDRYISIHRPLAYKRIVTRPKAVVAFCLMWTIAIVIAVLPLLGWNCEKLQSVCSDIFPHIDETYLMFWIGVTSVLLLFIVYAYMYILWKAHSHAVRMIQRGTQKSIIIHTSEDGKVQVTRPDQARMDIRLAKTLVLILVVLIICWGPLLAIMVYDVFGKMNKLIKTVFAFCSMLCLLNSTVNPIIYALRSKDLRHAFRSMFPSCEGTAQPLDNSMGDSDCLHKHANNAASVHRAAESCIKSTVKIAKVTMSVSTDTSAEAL
Outline: as §1

CNC(=O)[C@@H](NC(=O)c1nc(C2=CCC3(CC2)OCCO3)n2c1CN(C)CCC2)C(C)(C)C [Compound 448, (S)-N-(3,3-dimethyl-1-(methylamino)-1-oxobutan-2-yl)-8-methyl-3-(1,4-dioxaspiro[4.5]dec-7-en-8-yl)-6,7,8,9-tetrahydro-5H-imidazo[1,5-a][1,4]diazepine-1-carboxamide]
+/− RCB2 (rat CB2 receptor (rCB2)): +
+/− HCB1 [1]: +

CNC(=O)[C@@H](NC(=O)c1nc(C2=CCC(C)CC2)n2c1CN(C)CCC2)C(C)(C)C (stereo partly drawn) [Compound 449, N-((S)-3,3-dimethyl-1-(methylamino)-1-oxobutan-2-yl)-8-methyl-3-(4-methylcyclohex-1-enyl)-6,7,8,9-tetrahydro-5H-imidazo[1,5-a][1,4]diazepine-1-carboxamide]
+/− RCB2 (rat CB2 receptor (rCB2)): +
+/− HCB1 [1]: +

CNC(=O)[C@@H](NC(=O)c1nc(-c2ccncc2F)n2c1CN(C)CCC2)C(C)(C)C [Compound 451, (S)-N-(3,3-dimethyl-1-(methylamino)-1-oxobutan-2-yl)-3-(3-fluoropyridin-4-yl)-8-methyl-6,7,8,9-tetrahydro-5H-imidazo[1,5-a][1,4]diazepine-1-carboxamide]
+/− RCB2 (rat CB2 receptor (rCB2)): +
+/− HCB1 [1]: +

C=C(c1nc(C(=O)N[C@H](C(=O)NC)C(C)(C)C)c2n1CCCN(C)C2)C(F)(F)F [Compound 453, (S)-N-(3,3-dimethyl-1-(methylamino)-1-oxobutan-2-yl)-8-methyl-3-(3,3,3-trifluoroprop-1-en-2-yl)-6,7,8,9-tetrahydro-5H-imidazo[1,5-a][1,4]diazepine-1-carboxamide]
+/− RCB2 (rat CB2 receptor (rCB2)): +
EC50 [1]: > 10 µM

CNC(=O)[C@@H](NC(=O)c1nc(C(C)=C(C)C)n2c1CN(C)CCC2)C(C)(C)C [Compound 454, (S)-N-(3,3-dimethyl-1-(methylamino)-1-oxobutan-2-yl)-8-methyl-3-(3-methylbut-2-en-2-yl)-6,7,8,9-tetrahydro-5H-imidazo[1,5-a][1,4]diazepine-1-carboxamide]
+/− RCB2 (rat CB2 receptor (rCB2)): −
+/− HCB1 [1]: +

C=C(c1ccccc1)c1nc(C(=O)N[C@H](C(=O)NC)C(C)(C)C)c2n1CCCN(C)C2 [Compound 455, (S)-N-(3,3-dimethyl-1-(methylamino)-1-oxobutan-2-yl)-8-methyl-3-(1-phenylvinyl)-6,7,8,9-tetrahydro-5H-imidazo[1,5-a][1,4]diazepine-1-carboxamide]
+/− RCB2 (rat CB2 receptor (rCB2)): +
EC50 [1]: > 10 µM

CNC(=O)[C@@H](NC(=O)c1nc(C2=CCCC2)n2c1CN(C)CCC2)C(C)(C)C [Compound 456]
+/− RCB2 (rat CB2 receptor (rCB2)): +
EC50 [1]: > 10 µM

CNC(=O)[C@@H](NC(=O)c1nc(C2=CCCCCC2)n2c1CN(C)CCC2)C(C)(C)C [Compound 457, (S,E)-3-cycloheptenyl-N-(3,3-dimethyl-1-(methylamino)-1-oxobutan-2-yl)-8-methyl-6,7,8,9-tetrahydro-5H-imidazo[1,5-a][1,4]diazepine-1-carboxamide]
+/− RCB2 (rat CB2 receptor (rCB2)): −
EC50 [1]: > 10 µM

CNC(=O)[C@@H](NC(=O)c1nc(/C=C/Cc2ccccc2)n2c1CN(C)CCC2)C(C)(C)C [Compound 458, (S,E)-N-(3,3-dimethyl-1-(methylamino)-1-oxobutan-2-yl)-8-methyl-3-(3-phenylprop-1-enyl)-6,7,8,9-tetrahydro-5H-imidazo[1,5-a][1,4]diazepine-1-carboxamide]
+/− RCB2 (rat CB2 receptor (rCB2)): −
+/− HCB1 [1]: +

CNC(=O)[C@@H](NC(=O)c1nc(Cc2ccccc2)n2c1CN(C)CCC2)C(C)(C)C [Compound 459, (S)-3-benzyl-N-(3,3-dimethyl-1-(methylamino)-1-oxobutan-2-yl)-8-methyl-6,7,8,9-tetrahydro-5H-imidazo[1,5-a][1,4]diazepine-1-carboxamide]
+/− RCB2 (rat CB2 receptor (rCB2)): +
EC50 [1]: > 10 µM

CNC(=O)[C@@H](NC(=O)c1nc(C2=CCNCC2)n2c1CN(C)CCC2)C(C)(C)C [Compound 460, (S)-N-(3,3-dimethyl-1-(methylamino)-1-oxobutan-2-yl)-8-methyl-3-(1,2,3,6-tetrahydropyridin-4-yl)-6,7,8,9-tetrahydro-5H-imidazo[1,5-a][1,4]diazepine-1-carboxamide]
+/− RCB2 (rat CB2 receptor (rCB2)): +
+/− HCB1 [1]: +

CCS(=O)(=O)N1CCCn2c(-c3ccccc3)nc(C(=O)N[C@H](C(=O)NC)C(C)(C)C)c2C1 [Compound 461, (S)-N-(3,3-dimethyl-1-(methylamino)-1-oxobutan-2-yl)-8-(ethylsulfonyl)-3-phenyl-6,7,8,9-tetrahydro-5H-imidazo[1,5-a][1,4]diazepine-1-carboxamide]
+/− RCB2 (rat CB2 receptor (rCB2)): −
EC50 [1]: > 10 µM

CNC(=O)[C@@H](NC(=O)c1nc(-c2ccccc2)n2c1CN(C(=O)c1ccccc1)CCC2)C(C)(C)C [Compound 462, (S)-8-benzoyl-N-(3,3-dimethyl-1-(methylamino)-1-oxobutan-2-yl)-3-phenyl-6,7,8,9-tetrahydro-5H-imidazo[1,5-a][1,4]diazepine-1-carboxamide]
EC50 (rat CB2 receptor (rCB2)): > 10 µM
EC50 [1]: > 10 µM

CNC(=O)[C@@H](NC(=O)c1nc(-c2ccccc2)n2c1CN(C(C)=O)CCC2)C(C)(C)C [Compound 463, (S)-8-acetyl-N-(3,3-dimethyl-1-(methylamino)-1-oxobutan-2-yl)-3-phenyl-6,7,8,9-tetrahydro-5H-imidazo[1,5-a][1,4]diazepine-1-carboxamide]
+/− RCB2 (rat CB2 receptor (rCB2)): +
EC50 [1]: > 10 µM

CNC(=O)[C@@H](NC(=O)c1nc(-c2ccccc2)n2c1CN(S(=O)(=O)c1ccc(F)cc1)CCC2)C(C)(C)C [Compound 464, (S)-N-(3,3-dimethyl-1-(methylamino)-1-oxobutan-2-yl)-8-(4-fluorophenylsulfonyl)-3-phenyl-6,7,8,9-tetrahydro-5H-imidazo[1,5-a][1,4]diazepine-1-carboxamide]
+/− RCB2 (rat CB2 receptor (rCB2)): −
EC50 [1]: > 10 µM

COC(=O)[C@@H](NC(=O)c1nc(-c2ccccc2)n2c1CNCCC2)C(C)(C)C [Compound 465, (S)-methyl 3,3-dimethyl-2-(3-phenyl-6,7,8,9-tetrahydro-5H-imidazo[1,5-a][1,4]diazepine-1-carboxamido)butanoate]
+/− RCB2 (rat CB2 receptor (rCB2)): +
EC50 [1]: > 10 µM

COC(=O)[C@@H](NC(=O)c1nc(-c2ccc(C)cc2F)n2c1CNCCC2)C(C)(C)C [Compound 466]
+/− RCB2 (rat CB2 receptor (rCB2)): −
EC50 [1]: > 10 µM

COC(=O)[C@@H](NC(=O)c1nc(-c2ccccc2)n2c1CN(C)CCC2)C(C)(C)C [Compound 467, (S)-methyl 3,3-dimethyl-2-(8-methyl-3-phenyl-6,7,8,9-tetrahydro-5H-imidazo[1,5-a][1,4]diazepine-1-carboxamido)butanoate]
+/− RCB2 (rat CB2 receptor (rCB2)): +
EC50 [1]: > 10 µM

COC(=O)[C@@H](NC(=O)c1nc(-c2ccccc2)n2c1CN(C(C)C)CCC2)C(C)(C)C [Compound 468, (S)-methyl 2-(8-isopropyl-3-phenyl-6,7,8,9-tetrahydro-5H-imidazo[1,5-a][1,4]diazepine-1-carboxamido)-3,3-dimethylbutanoate]
+/− RCB2 (rat CB2 receptor (rCB2)): −
EC50 [1]: > 10 µM

COC(=O)[C@@H](NC(=O)c1nc(-c2ccc(C)cc2F)n2c1CN(C)CCC2)C(C)(C)C [Compound 469, (S)-methyl 2-(3-(2-fluoro-4-methylphenyl)-8-methyl-6,7,8,9-tetrahydro-5H-imidazo[1,5-a][1,4]diazepine-1-carboxamido)-3,3-dimethylbutanoate]
EC50 (rat CB2 receptor (rCB2)): > 10 µM
EC50 [1]: > 10 µM

COC(=O)[C@@H](NC(=O)c1nc(-c2ccc(C)cc2F)n2c1CN(CC1CC1)CCC2)C(C)(C)C [Compound 470, (S)-methyl 2-(8-(cyclopropylmethyl)-3-(2-fluoro-4-methylphenyl)-6,7,8,9-tetrahydro-5H-imidazo[1,5-a][1,4]diazepine-1-carboxamido)-3,3-dimethylbutanoate]
+/− RCB2 (rat CB2 receptor (rCB2)): −
EC50 [1]: > 10 µM

CN1CCCn2c(-c3ccccc3)nc(C(=O)N[C@H](C(=O)O)C(C)(C)C)c2C1 [Compound 471, (S)-3,3-dimethyl-2-(8-methyl-3-phenyl-6,7,8,9-tetrahydro-5H-imidazo[1,5-a][1,4]diazepine-1-carboxamido)butanoic acid]
EC50 (rat CB2 receptor (rCB2)): > 10 µM
EC50 [1]: > 10 µM

CC(C)NC(=O)[C@@H](NC(=O)c1nc(-c2ccccc2)n2c1CN(C)CCC2)C(C)(C)C [Compound 472, (S)-N-(1-(isopropylamino)-3,3-dimethyl-1-oxobutan-2-yl)-8-methyl-3-phenyl-6,7,8,9-tetrahydro-5H-imidazo[1,5-a][1,4]diazepine-1-carboxamide]
+/− RCB2 (rat CB2 receptor (rCB2)): +
EC50 [1]: > 10 µM

CCCNC(=O)[C@@H](NC(=O)c1nc(-c2ccccc2)n2c1CN(C)CCC2)C(C)(C)C [Compound 473, (S)-N-(3,3-dimethyl-1-oxo-1-(propylamino)butan-2-yl)-8-methyl-3-phenyl-6,7,8,9-tetrahydro-5H-imidazo[1,5-a][1,4]diazepine-1-carboxamide]
+/− RCB2 (rat CB2 receptor (rCB2)): +
EC50 [1]: > 10 µM

CC(C)CNC(=O)[C@@H](NC(=O)c1nc(-c2ccccc2)n2c1CN(C)CCC2)C(C)(C)C [Compound 474, (S)-N-(1-(isobutylamino)-3,3-dimethyl-1-oxobutan-2-yl)-8-methyl-3-phenyl-6,7,8,9-tetrahydro-5H-imidazo[1,5-a][1,4]diazepine-1-carboxamide]
+/− RCB2 (rat CB2 receptor (rCB2)): +
EC50 [1]: > 10 µM
